Experimental data as given in patent publication US10864192B2, “Compositions and methods for inhibiting brain trauma-induced neurodegeneration and related conditions” (priority 2016, dated 2020).
Where “and” joins values, the source holds several entries; their conditions need not be identical. Identical values can stand only once.

Assays:
clinical = test: clinical
From the text: FIGS. 33-34 depict two graphs from an Excel spreadsheet. FIG. 33 is a linear plot of plasma level vs time and FIG. 34 is a semi-log plot of plasma conc. vs time.

[1] = tested on: human peripheral blood mononuclear cells (PBMCs); test: PHA-induced cytokine production in human PBMCs; format: cell-based; settings: phenserine 100 nM to 10 μM, 24 hr, PHA 3 μg/mL
From the text: The detection limit for these assays is <1 pg/mL for IL-1beta and <3 pg/mL for IL-10. The intra- and inter-assay CV was <10%. All results are expressed in picograms per milliliter.

[2] = tested on: cultured hippocampal neurons; test: Glutamate-induced excitotoxicity in cultured neurons; format: cell-based, rat (Sprague Dawley); settings: phenserine 5 μM, glutamate 50 μM, 24 hr
Description: Briefly, cultured hippocampal neurons in triplicate were prepared from 18-20 day rat (Sprague Dawley) embryos and were cultured for 7 days. […] Neuronal viability was assessed 24 hr after addition of glutamate. The results are plotted as percent neuronal survival±SEM. […] Twenty-four hours later cell viability was quantified (by MTS assay—using, for example but not limited to, the CellTiter 96 Aqueous One Solution Cell Proliferation Assay kit (Promega, Madison, Wis., USA) according to the manufacturer's instructions).

SH-SY5Y cells [3] = test: H2O2-induced oxidative stress in SH-SY5Y cells (MTS assay); format: cell-based, human; settings: phenserine 10 and 30 μM, 100 μM H2O2, 24 hr
SH-SY5Y neuronal cells = test: Phenserine plus anti-inflammatory drug, oxidative stress and trophic effects in SH-SY5Y cells (MTS assay)
Description: Human SH-SY5Y neuronal cells were seeded in 96-well plates at a density of 1×10^5 cells per well and allowed to grow for 24 hr. […] […] At 18 hr thereafter a MTS assay was performed per the manufacturers protocol (Abcam, Cambridge, Mass.) to measure cell viability.
For example, instead of aspirin (as shown in FIG. 3A), an NSAID, naproxen, was used under the same experimental conditions at concentrations in FIGS. 3B-3D.

[4] = tested on: acetyl- and butyrylcholinesterase; test: Cholinesterase inhibition in mice after the final dose; format: in vivo, mouse; settings: 24 hours following the final dose
From the text: The same model of concussive head injury described above with respect to FIG. 7 was used in the experiments described below with respect to FIGS. 8 and 9. […] Previous studies of drug and metabolite concentrations have shown acetylcholinesterase inhibition to be present when any concentration of drug or metabolite have been detected. […] Drug and its metabolites have been shown undetectable when no anticholinesterase activities are present.

SH-SY5Y cells [5] = test: Cell proliferation of SH-SY5Y cells (MTS assay); format: cell-based, human; settings: 30 uM, 24 hr
Description: SHSYSY cells were exposed for 24 hr to 30 uM concentration of (−)- and (+)-phenserine. After 24 hr cell proliferation was determined by MTS assay. *P,0.05, **p,0.01, and ***p,0.001 compared to control samples without drug.

wild-type mice = test: Concussive mTBI in wild-type mice, immunohistochemistry 72 hr post injury; format: in vivo, mouse; settings: 72 hr post TBI
Description: FIG. 18 illustrates (−)-Phenserine administration preventing mTBI-induced neurodegeneration in hippocampus and lateral cortex (72 hr post concussive TBI). […] Representative images of FJC staining in hippocampus (CA1) Magnification 60× (n=5/group; *p<0.05, **p<0.01, ***p<0.001 vs. Control (CTRL) sham by Tukey's post hoc test; ^^p<0.01 vs. mTBI alone by Tukey's post hoc test).
Neuroinflammation was evaluated by counting activated microglial cells experessing the marker IBA1 as well as by counting microglial cells co-expressing IBA1 and immunoreactivity for the pro-inflammatory cytokine TNF-α (Anti-IBA1 antibody: Abcam; anti-TNF-α antibody: Abbiotec). As evident in FIG. 20, activated microglial (IBA1 positive (+) staining) cells—a classical marker of neuroinflammation—were elevated in wild-type mice challenged with mTBI. (−)-Phenserine post-treatment mitigated this mTBI-induced effect (FIG. 20). Likewise, mTBI challenge induced a rise in IBA1+ activated microglial cells expressing the pro-inflammatory marker TNF-α (FIG. 21), which was similarly mitigated by (−)-phenserine post-treatment.
(§1) (−)-Phenserine mitigates losses in synaptic integrity in wild and Tg mice subjected to weight drop injury. To evaluate whether mTBI-induced elevations in markers of cell loss (FJC) and neuroinflammation (TNF-α and IBA1+) are allied with a loss of synaptic integrity (which associates with cognitive loss (Wakade et al., 2010)), post- and pre-synaptic protein markers of synaptic integrity (post-synaptic density-95 (PSD-95) and synaptophysin, respectively) were immunohistochemically stained and quantified in control (w/o head injury) and mTBI challenged mice post-treated with vehicle or (−)-phenserine. […] These declines were mitigated by post treatment with (−)-phenserine. An alike trend was evident in mTBI challenged APP/PS1 AD Tg mice, and these reductions in post- and presynaptic proteins were similarly mitigated by post-treatment with (−)-phenserine (FIG. 25)

[6] = tested on: APP/PS1 AD transgenic (Tg) male mice; test: Concussive mTBI in APP/PS1 AD Tg mice, immunohistochemistry 72 hr post injury; format: in vivo, mouse; settings: 72 hr post TBI
From the text: To study this in a model for prevention of progression of TBI pathologies into AD with resulting neuronal cell dysfunction and death, together with neuroinflammation, we used already ongoing, aged (10 to 12 month old) APP/PS1 AD transgenic (Tg) male mice were challenged with mTBI (concussive 30 g weight drop), followed by similar (−)-phenserine or vehicle post-treatment.
To similarly cross-validate this in the more complex model of aged (10 to 12 month old) APP/PS1 AD Tg male mice, animals were challenged with mTBI (concussive 30 g weight drop) followed by (−)-phenserine or vehicle post-treatment. […] Likewise, co-localization of proinflammatory TNF-α was elevated within IBA1+ microglia across brain regions in AD Tg APP/PS1 mice with and without mTBI, and this trend was mitigated by (−)-phenserine post treatment in mTBI challenged animals (FIG. 23).
as §1

[7] = Tolerability of immediate release phenserine in patients; format: in vivo, human; settings: immediate release dose of 20 mg
[8] = in vivo
[9] = 5 mg/kg BID, hippocampus and lateral cortex

## CN1CC[C@@]2(C)c3cc(OC(=O)Nc4ccccc4)ccc3N(C)[C@@H]12 [phenserine, (−)-phenylcarbamoyleseroline]
clinical; human, in vivo, 15 mg
  Cmax: 3.02 ng/mL and 8.9 nM
clinical; targeted 30 mg/d or 60 mg/d in sustained release formulation
  expected plasma levels: 1.58 to 0.53 ng/ml
[1]
  PHA-induced anti-inflammatory IL-10 levels: without impacting
  PHA-induced elevation in pro-inflammatory IL-1β levels: substantially mitigated
[2]
  cell viability (percent neuronal survival): 73.5 % of control levels
SH-SY5Y cells [3]
  H2O2-mediated neuronal toxicity (cell viability): significantly ameliorated
SH-SY5Y neuronal cells; ASA 10^−5 M, (−)-Phen 10^−7 M, 10^−6 M, H2O2 50 μM, 18 hr
  oxidative stress-induced cellular death (cell viability): no activity
SH-SY5Y neuronal cells; H2O2 300 μM, phenserine 100 nM, naproxen 10 to 1000 nM
  loss in cell viability following oxidative stress: does not statistically mitigate
SH-SY5Y neuronal cells; phenserine 10 nM, naproxen 100 nM
  neurotrophic effect (cell survival): no neurotrophic action
[4]
  inhibition of acetyl- and butyrylcholinesterase: no inhibition
SH-SY5Y cells [5]
  cell proliferation (neurotrophic actions): increasing cellular proliferation
wild-type mice; [9]
  mTBI-induced neurodegeneration (Fluoro-Jade C+ cells): fully counteracted
wild-type mice
  mTBI-induced reductions in synaptophysin and PSD-95: mitigated
wild-type mice; hippocampus and lateral cortex
  mTBI-induced activation of microglia (IBA1+ cells): mitigated
  mTBI-induced elevations in TNF-α within microglia (co-localized TNF-α and IBA1+ cells): mitigated
[6]; [9]
  mTBI-induced activation of microglia (IBA1+ cells): mitigated
  mTBI-induced neurodegeneration (Fluoro-Jade C+ cells): counteracted
[6]
  mTBI-induced reductions in synaptophysin and PSD-95: mitigated
[6]; hippocampus and lateral cortex
  mTBI-induced elevations in TNF-α within microglia (co-localized TNF-α and IBA1+ cells): mitigated
[7]
  negative consequences in patients: negative consequences (e.g., vomiting, diarrhea, nausea, etc.) have been observed
[8]
  Brain:Plasma Partitioning: 6.8-10:1
  brain:blood partition: approx. 8:1
